The values that follow come from US11607421B2, “Ethanolamine-based lipid biosynthetic compounds, method of making and use thereof” (Metanoi Therapeutics, Inc., priority 2016, dated 2023).

For orientation: IC50 means the concentration at which inhibition is half-maximal.

Data set [1] in a line: Stability in simulated intestinal fluid (SIF). Format: in vitro ADME. Particulars: 10 μM, SIF pH 6.8, over time (to 120 min). As to the method:
(§1) Samples (100 μl) were drawn at 0, 15, 30 and 60 min from SGF reaction-vials and at 0, 30, 60 and 120 min from SIF reaction-vials, quenched with acetonitrile, vortex-mixed, and centrifuged before supernatant analysis by LC-MS/MS analysis. […] For PK studies, a sparse sampling design with 3 mice per time point was used to collect blood samples at 5, 10, 15, 30 min and 1, 2, 3, 4, 5 and 6 h in K2EDTA-coated tubes. The pharmacokinetic parameters (AUClast, Cmax, CL and Vss) were calculated using non-compartmental analysis tool of Phoenix WinNonlin software (version 6.3).
Given the extreme pH and various digestive enzymes, the GI tract presents a harsh environment to any ingested xenobiotic. Thus, many potential drug candidates are degraded in the GI tract, explaining their decreased bioavailability or inability to reach the target at effective concentrations. Simulated gastric fluid (SGF; pH 1.2) and simulated intestinal fluid (SIF; pH 6.8) closely mimic the GI tract environment and are amenable in vitro systems to evaluate degradation of a compound in GI tract (US Pharmacopoia).
Simulated gastric fluid was prepared as per U.S. Pharmacopeia (USP) methods. Sodium chloride (2 g) and pepsin (3.2 g, from porcine stomach mucosa) were dissolved in 7.0 ml hydrochloric acid and Milli-Q water to make up the volume to 1000 ml and the pH was adjusted to 1.2. […]

The nature of data set [2]: Pharmacokinetic studies, single oral and intravenous dose. Format: in vivo, BALB/c mice. The method, then:
as §1
Nine animals per group were used for PK studies. A sparse sampling design was used to collect blood samples from animals at 5 min, 10 min, 15 min, 30 min, 1, 2, 3, 4, 5, and 6 h in K2EDTA coated tubes. Plasma was collected from blood by centrifugation of samples at 8000 g for 10 min. Plasma samples were stored below −60° C. until further analysis.
PK parameters were calculated from the concentration-time data using the non-compartmental analysis tool of Phoenix WinNolin® software (version 6.3, Pharsight, St Louis, Mo.). The area under the concentration time curve (AUClast) was calculated by the linear trapezoidal rule. Following oral administration, peak concentration (Cmax) and time for the peak concentration (Tmax) were the observed values. The clearance (CL) and volume of distribution (Vss) were estimated following IV dose administration. The elimination rate constant value (k) was obtained by linear regression of the log-linear terminal phase of the concentration-time profile using at least three declining concentrations in terminal phase with a correlation coefficient of >0.8. The terminal half-life value (T1/2) was calculated using the equation ln 2/k. Oral bioavailability was calculated by taking the ratio of dose normalized AUClast following oral administration to IV administration.

Details of data set [3]: species or system BALB/c mice. Particulars: mouse, in vivo, 40 mg/kg. As to the method: Mice were sacrificed after 24, 48 h and 1, 2, 3, 4 weeks and spleens were collected. Total splenocytes were counted after lysis of RBC with RBC lysis buffer. After this, splenocytes where incubated with anti-CD16/CD32 antibody to block Fc receptors and then labeled with anti-CD3-APC, anti-CD4-Alexa488, anti-CD8-Alexa488, anti-DX5-FITC, or anti-CD19-FITC antibodies according to the manufacturer's instructions. Labeled cells were analyzed by flow cytometry using an LSRFortessa Flow cytometer (BD Biosciences, CA). Data from this analysis was analyzed using FlowJo software (TreeStar, OR).

The test system of a further data set is Ki67. The experiment in a line: Immunohistochemical staining of PC-3-luc xenografts. Type of data set: in vivo, mice. Particulars: Etn-treated tumors (40 mg/kg). As to the method: (§2) OCR was measured using an oxygen electrode.
While ˜62% cells were Ki67-positive in untreated control tumors, Ki67 positivity was reduced to ˜40% in Etn-treated tumors (FIG. 14, panel Dii).
Tumors were formalin-fixed, paraffin-embedded and 5 μm thick prostate tumor sections were stained for Ki67 and c-PARP, and prostate cancer TMA (US Biomax, Derwood, Mass.) was immunostained for choline kinase. All stained slides were examined by a pathologist in a blinded-manner.

The test system of data set [4] is PC-3 cells. The data set can be described thus: Oxygen consumption rate (OCR), oxygen electrode. Type of data set: cell-based, human. Conditions: 2 mg/ml Etn, 48 h, 1×10^6 cells/ml. The method, then: as §2
OCRs were measured using a computer-interfaced oxygen electrode (Hansatech Instruments, Inc., Norfolk, England) by monitoring the initial rate of oxygen consumption at 37° C. and atmospheric oxygen concentration (230 μM O2).

The target in the next data set is CYP1A2 (Homo sapiens, UniProt P05177). The data set can be described thus: CYP inhibition in human liver microsomes.
Chain of CYP1A2 (P05177 whole entry): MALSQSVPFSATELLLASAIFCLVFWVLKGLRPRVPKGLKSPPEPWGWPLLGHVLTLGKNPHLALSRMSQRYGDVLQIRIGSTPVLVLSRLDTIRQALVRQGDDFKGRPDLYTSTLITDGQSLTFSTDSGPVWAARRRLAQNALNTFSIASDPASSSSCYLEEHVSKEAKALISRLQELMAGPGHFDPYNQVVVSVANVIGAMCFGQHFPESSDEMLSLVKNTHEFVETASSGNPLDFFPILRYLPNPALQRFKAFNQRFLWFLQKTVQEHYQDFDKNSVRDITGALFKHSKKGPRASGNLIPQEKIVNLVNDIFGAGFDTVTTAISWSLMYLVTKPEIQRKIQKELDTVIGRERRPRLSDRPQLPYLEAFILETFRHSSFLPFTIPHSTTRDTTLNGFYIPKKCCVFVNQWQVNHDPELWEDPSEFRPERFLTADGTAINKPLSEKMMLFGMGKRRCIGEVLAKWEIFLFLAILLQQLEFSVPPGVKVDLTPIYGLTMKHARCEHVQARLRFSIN
A further data set addresses CYP2A6 (Homo sapiens, UniProt P11509). The data set can be described thus: CYP inhibition in human liver microsomes. (Liver microsomes are vesicles of endoplasmic reticulum, rich in cytochrome P450 enzymes.)
For another data set, the target named is CYP2B6 (Homo sapiens, UniProt P20813). The data set can be described thus: CYP inhibition in human liver microsomes.
Chain of CYP2B6 (P20813 whole entry): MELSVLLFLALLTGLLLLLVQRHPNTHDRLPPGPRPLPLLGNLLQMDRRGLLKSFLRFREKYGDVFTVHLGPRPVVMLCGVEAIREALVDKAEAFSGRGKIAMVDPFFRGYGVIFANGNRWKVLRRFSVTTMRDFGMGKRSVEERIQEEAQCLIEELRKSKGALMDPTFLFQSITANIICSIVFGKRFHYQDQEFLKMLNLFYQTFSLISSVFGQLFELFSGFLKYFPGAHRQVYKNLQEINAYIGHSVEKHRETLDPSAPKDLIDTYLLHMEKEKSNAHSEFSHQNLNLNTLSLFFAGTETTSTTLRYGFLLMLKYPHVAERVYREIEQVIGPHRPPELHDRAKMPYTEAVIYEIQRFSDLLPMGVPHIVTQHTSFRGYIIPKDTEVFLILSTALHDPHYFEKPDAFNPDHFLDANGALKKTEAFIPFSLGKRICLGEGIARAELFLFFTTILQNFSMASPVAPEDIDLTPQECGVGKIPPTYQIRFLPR
A further data set concerns the target CYP2C8 (Homo sapiens, UniProt P10632). The data set can be described thus: CYP inhibition in human liver microsomes.
The next data set has as its target CYP2C9 (Homo sapiens, UniProt P11712). The experiment in a line: CYP inhibition in human liver microsomes.
The target of another data set is CYP2E1 (Homo sapiens, UniProt P05181). The data set can be described thus: CYP inhibition in human liver microsomes.
Chain of CYP2E1 (P05181 whole entry): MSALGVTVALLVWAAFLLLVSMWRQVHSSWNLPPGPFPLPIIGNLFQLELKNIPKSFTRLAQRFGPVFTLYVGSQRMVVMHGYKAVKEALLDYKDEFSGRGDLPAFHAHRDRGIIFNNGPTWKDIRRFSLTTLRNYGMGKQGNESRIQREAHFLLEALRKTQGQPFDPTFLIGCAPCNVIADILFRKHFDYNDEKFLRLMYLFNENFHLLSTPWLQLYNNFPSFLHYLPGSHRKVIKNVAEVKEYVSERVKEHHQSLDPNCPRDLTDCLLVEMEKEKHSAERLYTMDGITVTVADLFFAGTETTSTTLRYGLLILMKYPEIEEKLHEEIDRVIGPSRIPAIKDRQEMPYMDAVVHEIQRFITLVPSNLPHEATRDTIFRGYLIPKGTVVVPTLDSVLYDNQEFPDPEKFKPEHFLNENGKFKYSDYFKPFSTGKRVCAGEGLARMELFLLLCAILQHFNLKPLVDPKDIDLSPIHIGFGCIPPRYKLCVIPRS
Data set [5] concerns PC-3 cells. The experiment in a line: Glucose and glutamine contents in cultured cells (LC-MS/MS). Particulars: 2 mg/ml Etn for 48 h vs control cells.

Chain of CYP2C9 (P11712 whole entry): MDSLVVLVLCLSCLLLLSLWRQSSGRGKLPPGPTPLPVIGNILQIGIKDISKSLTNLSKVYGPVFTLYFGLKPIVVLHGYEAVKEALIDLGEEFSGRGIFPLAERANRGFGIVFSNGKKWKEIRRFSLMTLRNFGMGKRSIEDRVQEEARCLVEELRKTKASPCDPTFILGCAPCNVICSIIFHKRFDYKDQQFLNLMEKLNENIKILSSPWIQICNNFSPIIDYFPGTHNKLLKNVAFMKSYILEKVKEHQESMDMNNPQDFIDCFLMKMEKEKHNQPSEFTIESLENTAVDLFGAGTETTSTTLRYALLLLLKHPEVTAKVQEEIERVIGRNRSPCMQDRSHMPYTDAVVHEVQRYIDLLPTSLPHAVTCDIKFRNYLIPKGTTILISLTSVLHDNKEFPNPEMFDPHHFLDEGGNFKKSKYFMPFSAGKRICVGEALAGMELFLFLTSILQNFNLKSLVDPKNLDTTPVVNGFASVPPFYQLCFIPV
Chain of CYP2C8 (P10632 whole entry): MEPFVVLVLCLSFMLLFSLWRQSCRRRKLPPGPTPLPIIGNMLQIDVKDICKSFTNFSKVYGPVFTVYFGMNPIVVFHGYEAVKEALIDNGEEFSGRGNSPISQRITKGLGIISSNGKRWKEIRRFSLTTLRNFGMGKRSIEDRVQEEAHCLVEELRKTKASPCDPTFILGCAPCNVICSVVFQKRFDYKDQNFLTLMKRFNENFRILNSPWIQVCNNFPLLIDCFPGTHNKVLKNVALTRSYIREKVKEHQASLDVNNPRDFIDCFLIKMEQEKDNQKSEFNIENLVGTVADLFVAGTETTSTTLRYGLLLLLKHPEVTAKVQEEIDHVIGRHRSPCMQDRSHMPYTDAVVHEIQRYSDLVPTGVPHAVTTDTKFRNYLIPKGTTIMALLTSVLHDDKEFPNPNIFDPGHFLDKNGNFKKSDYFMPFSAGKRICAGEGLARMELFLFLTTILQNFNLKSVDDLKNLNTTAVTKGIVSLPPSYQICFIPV
Chain of CYP2A6 (P11509 whole entry): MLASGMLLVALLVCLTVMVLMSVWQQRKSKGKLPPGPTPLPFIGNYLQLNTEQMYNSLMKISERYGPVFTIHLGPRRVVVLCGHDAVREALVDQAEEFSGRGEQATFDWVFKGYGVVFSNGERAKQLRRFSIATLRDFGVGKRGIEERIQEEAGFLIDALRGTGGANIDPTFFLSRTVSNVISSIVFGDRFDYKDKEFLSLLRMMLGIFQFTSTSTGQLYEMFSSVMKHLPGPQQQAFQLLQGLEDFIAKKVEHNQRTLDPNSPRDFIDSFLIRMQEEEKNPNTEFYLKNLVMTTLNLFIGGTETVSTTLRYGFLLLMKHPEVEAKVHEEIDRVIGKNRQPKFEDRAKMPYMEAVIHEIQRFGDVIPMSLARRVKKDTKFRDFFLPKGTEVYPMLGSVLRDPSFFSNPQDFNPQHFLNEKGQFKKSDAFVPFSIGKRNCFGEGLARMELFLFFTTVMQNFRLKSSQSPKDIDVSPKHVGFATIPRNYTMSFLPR

For the molecule `NCCO` [Etn, monoethanolamine], in data set [1], the “stability in SIF” value is recorded as “remained unchanged”. Moreover, the “AUClast of Etn compared to PhosE” value in data set [2] (oral 40 mg/kg Etn) came to 13 fold. Moreover, in data set [2] (oral 40 mg/kg Etn), the “Cmax of Etn compared to PhosE” value came out at 32 fold. Besides, the “time to reach peak plasma concentration” value in [2] (oral Etn administration, analyte Etn) is given as 10 min. The immunotoxicities entry in data set [3] is “does not induce immunotoxicities”. Further, in the data set on Ki67, the Ki67 positivity is recorded as around 40%. For the same molecule, the “reduction of OCR compared to controls” value with PC-3 cells [4] was around 26%. Also, the IC50 against CYP1A2, on CYP2A6, against CYP2B6, against CYP2C8, against CYP2C9 and at CYP2E1 was above 100 µM in each case. The “glucose and glutamine contents” value in the data set on PC-3 cells [5] is on record as “significantly reduced”.
